Test results reported in BindingDB's records for patent US20240025922 (Merck Patent, 2024).

Target: Mitogen-activated protein kinase kinase kinase kinase 1 (Homo sapiens, UniProt Q92918)
Assay: HPK1 Kinase Assay (Biochemical Assay)
Description: A recombinant fusion protein consisting of full-length human HPK1 (MAP4K1) with an N-terminal Glutatione S-transferase (GST) tag was produced in insect cells Sf21 using the baculovirus expression system. GST-HPK1 protein was purified from cell lysates by glutathione Sepharose affinity chromatography. The assay is run in three continuous steps: 1) the HPK1 enzymatic kinase reaction, 2) an ATP depletion, and 3) the ADP detection, the steps 2 and 3 are performed with ADP-Glo Kinase Assay kit from Promega (V9101). […] After 120 minutes, the reaction was stopped by adding 5 μL of ADP-Glo reagent (Promega, V9101) and incubating for 40 min. in the dark at 23 C. To determine the level of ADP, 10 μl ADP-Glo Detection solution was added and incubated for 1 hour at 23 C. in the dark.

Mitogen-activated protein kinase kinase kinase kinase 1, sequence (Q92918 whole entry): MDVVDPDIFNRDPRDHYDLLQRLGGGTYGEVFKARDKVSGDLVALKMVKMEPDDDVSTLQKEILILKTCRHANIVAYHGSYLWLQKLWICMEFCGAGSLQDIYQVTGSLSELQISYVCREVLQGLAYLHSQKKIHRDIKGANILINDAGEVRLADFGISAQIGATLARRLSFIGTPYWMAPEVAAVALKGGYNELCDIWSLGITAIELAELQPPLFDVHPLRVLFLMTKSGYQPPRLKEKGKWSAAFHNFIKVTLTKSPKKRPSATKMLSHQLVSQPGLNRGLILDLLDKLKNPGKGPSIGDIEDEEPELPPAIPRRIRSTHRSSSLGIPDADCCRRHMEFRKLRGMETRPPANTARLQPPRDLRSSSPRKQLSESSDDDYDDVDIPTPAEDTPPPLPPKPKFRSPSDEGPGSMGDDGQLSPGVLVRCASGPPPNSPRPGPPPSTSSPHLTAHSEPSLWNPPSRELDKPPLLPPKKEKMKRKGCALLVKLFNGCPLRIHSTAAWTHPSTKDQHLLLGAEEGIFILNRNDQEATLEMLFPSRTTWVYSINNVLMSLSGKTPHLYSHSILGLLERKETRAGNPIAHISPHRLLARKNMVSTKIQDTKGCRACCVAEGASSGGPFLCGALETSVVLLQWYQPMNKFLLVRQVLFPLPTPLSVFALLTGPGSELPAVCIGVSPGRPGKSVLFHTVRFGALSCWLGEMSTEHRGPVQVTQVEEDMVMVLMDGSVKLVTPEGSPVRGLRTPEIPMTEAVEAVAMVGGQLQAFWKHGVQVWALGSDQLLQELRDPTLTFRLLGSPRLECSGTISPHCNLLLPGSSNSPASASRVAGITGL

Cc1cc(Nc2cc3c(cn2)CCN(c2cnc4c(c2Cl)NCCO4)C3)nn1CC(=O)N(C)C [US20240025922, Example 131]
IC50: > 1000 nM

Cc1c(N2CCc3cnc(Nc4cc5n(n4)CC(=O)N(C(C)C)CC5)nc3C2)cnc2c1NCCO2 [US20240025922, Example 89]
IC50: > 1000 nM

COc1cccc(F)c1N1CCc2cnc(Nc3cnc4c(c3)CN(C)CC4)nc2C1 [US20240025922, Example 120]
IC50: < 100 nM
